Experimental data taken from ChEMBL document CHEMBL1152141, “Pyrrolo-pyrimidones: a novel class of MK2 inhibitors with potent cellular activity” (Bioorg Med Chem Lett, 2008).
≈ marks a conversion by molar mass, not a printed value.

Tests used:
PBMC = experiment: Inhibition of LPS-stimulated TNFalpha release from human PBMC after 3 hrs
Aurora kinase A = Aurora kinase A (Homo sapiens, UniProt O14965); experiment: Inhibition of Aurora A
[1] = Thermodynamic solubility at pH 6.8; assay type: physicochemical; conditions: buffer
[2] = molecular target: Mast/stem cell growth factor receptor Kit (Homo sapiens, UniProt P10721); experiment: Inhibition of c-Kit
Sequence of Mast/stem cell growth factor receptor Kit (P10721 whole entry): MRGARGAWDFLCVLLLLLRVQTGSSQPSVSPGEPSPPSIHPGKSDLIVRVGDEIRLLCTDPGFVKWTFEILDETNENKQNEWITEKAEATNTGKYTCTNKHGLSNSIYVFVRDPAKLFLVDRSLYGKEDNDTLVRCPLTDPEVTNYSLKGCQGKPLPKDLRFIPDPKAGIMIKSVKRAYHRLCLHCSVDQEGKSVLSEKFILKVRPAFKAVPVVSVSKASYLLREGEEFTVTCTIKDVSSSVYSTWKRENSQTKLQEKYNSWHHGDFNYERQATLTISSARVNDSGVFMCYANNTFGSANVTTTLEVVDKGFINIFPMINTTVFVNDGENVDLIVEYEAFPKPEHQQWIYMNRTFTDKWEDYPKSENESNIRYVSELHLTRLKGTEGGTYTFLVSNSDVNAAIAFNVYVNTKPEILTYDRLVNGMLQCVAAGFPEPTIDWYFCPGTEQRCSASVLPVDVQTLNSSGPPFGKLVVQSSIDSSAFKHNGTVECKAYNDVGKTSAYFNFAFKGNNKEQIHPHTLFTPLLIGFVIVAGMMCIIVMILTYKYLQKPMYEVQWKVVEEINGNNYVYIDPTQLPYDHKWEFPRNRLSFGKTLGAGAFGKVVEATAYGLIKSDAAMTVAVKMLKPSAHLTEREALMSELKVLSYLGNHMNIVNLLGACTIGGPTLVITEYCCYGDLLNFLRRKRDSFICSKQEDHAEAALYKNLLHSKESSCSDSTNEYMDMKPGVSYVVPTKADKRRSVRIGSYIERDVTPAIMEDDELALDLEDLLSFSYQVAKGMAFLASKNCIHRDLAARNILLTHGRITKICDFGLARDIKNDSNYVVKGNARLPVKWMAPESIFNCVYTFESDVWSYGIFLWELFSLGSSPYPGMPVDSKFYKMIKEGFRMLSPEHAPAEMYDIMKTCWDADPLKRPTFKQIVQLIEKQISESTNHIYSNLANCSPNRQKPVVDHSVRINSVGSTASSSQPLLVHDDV

[3] = molecular target: RAC-alpha serine/threonine-protein kinase (Homo sapiens, UniProt P31749); experiment: Inhibition of PKB
[4] = molecular target: Tyrosine-protein kinase JAK2 (Homo sapiens, UniProt O60674); experiment: Inhibition of JAK2
[5] = molecular target: Insulin-like growth factor 1 receptor (Homo sapiens, UniProt P08069); experiment: Inhibition of IGF1R
[6] = molecular target: ALK tyrosine kinase receptor (Homo sapiens, UniProt Q9UM73); experiment: Inhibition of Alk
[7] = molecular target: Receptor tyrosine-protein kinase erbB-2 (Homo sapiens, UniProt P04626); experiment: Inhibition of HER2
[8] = molecular target: Heat shock protein beta-1 (Homo sapiens) (UniProt P04792); experiment: Inhibition of LPS-stimulated hsp27 phosphorylation in 1 hr pretreated human THP1 cells by Western blot; assay type: cell-based; conditions: THP-1
[9] = molecular target: Epidermal growth factor receptor (Homo sapiens, UniProt P00533)
[10] = molecular target: MAP kinase-activated protein kinase 2 (Homo sapiens, UniProt P49137)
[11] = Inhibition of PKA
[12] = molecular target: Vascular endothelial growth factor receptor 2 (Homo sapiens, UniProt P35968); experiment: Inhibition of KDR
[13] = molecular target: MAP kinase-activated protein kinase 5 (Homo sapiens, UniProt Q8IW41); experiment: Inhibition of MK5
Ephrin type-A receptor 4 = Ephrin type-A receptor 4 (Homo sapiens, UniProt P54764); experiment: Inhibition of EphA4
[14] = molecular target: Tyrosine-protein kinase JAK3 (Homo sapiens, UniProt P52333); experiment: Inhibition of JAK3
[15] = molecular target: Hepatocyte growth factor receptor (Homo sapiens, UniProt P08581); experiment: Inhibition of c-Met
[16] = molecular target: Tyrosine-protein kinase BTK (Homo sapiens, UniProt Q06187); experiment: Inhibition of Btk
Sequence of Tyrosine-protein kinase BTK (Q06187 whole entry): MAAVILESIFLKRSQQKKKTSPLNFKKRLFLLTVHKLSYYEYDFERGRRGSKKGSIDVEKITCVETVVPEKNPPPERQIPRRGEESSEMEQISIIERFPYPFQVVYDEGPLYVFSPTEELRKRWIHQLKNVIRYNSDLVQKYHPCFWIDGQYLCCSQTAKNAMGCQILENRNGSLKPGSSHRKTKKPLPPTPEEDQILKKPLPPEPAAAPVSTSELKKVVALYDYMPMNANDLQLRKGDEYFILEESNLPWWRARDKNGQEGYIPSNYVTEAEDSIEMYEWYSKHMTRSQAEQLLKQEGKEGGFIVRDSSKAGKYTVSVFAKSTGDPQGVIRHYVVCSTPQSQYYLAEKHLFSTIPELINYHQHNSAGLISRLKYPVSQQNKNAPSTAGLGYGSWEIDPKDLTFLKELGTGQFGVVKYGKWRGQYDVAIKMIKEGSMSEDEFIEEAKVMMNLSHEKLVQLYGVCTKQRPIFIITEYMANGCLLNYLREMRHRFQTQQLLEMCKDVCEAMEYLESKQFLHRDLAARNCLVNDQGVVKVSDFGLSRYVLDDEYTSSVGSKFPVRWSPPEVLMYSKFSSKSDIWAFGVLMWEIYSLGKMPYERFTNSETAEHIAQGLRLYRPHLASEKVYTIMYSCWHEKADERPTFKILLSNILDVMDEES

Ephrin type-B receptor 4 = Ephrin type-B receptor 4 (Homo sapiens, UniProt P54760); experiment: Inhibition of EphB4
[17] = molecular target: Mitogen-activated protein kinase 9 (Homo sapiens, UniProt P45984); experiment: Inhibition of JNK2
Sequence of Mitogen-activated protein kinase 9 (P45984 whole entry): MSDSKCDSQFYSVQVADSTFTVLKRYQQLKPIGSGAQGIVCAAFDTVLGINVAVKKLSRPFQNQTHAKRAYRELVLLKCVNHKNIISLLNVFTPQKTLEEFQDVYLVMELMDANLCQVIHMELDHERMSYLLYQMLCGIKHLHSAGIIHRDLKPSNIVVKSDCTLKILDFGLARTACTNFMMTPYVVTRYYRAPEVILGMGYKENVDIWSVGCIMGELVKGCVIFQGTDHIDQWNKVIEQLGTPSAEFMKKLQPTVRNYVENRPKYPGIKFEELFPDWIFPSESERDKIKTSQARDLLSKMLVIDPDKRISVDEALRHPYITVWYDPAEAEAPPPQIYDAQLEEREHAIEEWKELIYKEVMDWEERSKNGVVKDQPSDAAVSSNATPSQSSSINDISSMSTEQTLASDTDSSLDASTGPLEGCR

[18] = molecular target: Cyclin-dependent kinase 2 (Homo sapiens, UniProt P24941); experiment: Inhibition of CDK2
[19] = molecular target: Fibroblast growth factor receptor 4 (Homo sapiens, UniProt P22455); experiment: Inhibition of FGFR4
Sequence of Fibroblast growth factor receptor 4 (P22455 whole entry): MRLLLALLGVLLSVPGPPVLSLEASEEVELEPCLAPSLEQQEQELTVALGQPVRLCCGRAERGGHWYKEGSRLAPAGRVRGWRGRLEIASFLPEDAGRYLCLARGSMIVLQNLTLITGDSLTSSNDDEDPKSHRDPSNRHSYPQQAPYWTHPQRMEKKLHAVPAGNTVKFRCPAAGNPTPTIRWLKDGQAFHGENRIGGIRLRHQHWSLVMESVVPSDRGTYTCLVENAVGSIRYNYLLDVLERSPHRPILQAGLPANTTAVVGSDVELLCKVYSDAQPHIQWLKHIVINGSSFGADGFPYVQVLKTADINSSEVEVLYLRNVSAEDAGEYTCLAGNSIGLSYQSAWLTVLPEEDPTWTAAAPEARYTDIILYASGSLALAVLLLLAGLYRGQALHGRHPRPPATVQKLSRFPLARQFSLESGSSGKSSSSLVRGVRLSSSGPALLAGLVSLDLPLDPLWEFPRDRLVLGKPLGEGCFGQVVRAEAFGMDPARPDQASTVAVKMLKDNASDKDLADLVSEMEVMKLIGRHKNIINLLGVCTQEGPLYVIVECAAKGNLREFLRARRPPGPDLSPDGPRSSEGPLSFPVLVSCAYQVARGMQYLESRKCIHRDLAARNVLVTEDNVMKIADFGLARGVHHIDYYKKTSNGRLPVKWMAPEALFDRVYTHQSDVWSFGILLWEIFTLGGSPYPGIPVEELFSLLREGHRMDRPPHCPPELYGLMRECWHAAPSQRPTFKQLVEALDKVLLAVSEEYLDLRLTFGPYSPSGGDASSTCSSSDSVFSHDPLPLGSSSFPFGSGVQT

MAP kinase p38 = MAP kinase p38 (Homo sapiens, UniProt O15264+Q15759+Q16539+P53778); experiment: Inhibition of human p38; assay type: protein assay
[20] = molecular target: Mitogen-activated protein kinase 1 (Homo sapiens, UniProt P28482); experiment: Inhibition of ERK2
Sequence of Mitogen-activated protein kinase 1 (P28482 whole entry): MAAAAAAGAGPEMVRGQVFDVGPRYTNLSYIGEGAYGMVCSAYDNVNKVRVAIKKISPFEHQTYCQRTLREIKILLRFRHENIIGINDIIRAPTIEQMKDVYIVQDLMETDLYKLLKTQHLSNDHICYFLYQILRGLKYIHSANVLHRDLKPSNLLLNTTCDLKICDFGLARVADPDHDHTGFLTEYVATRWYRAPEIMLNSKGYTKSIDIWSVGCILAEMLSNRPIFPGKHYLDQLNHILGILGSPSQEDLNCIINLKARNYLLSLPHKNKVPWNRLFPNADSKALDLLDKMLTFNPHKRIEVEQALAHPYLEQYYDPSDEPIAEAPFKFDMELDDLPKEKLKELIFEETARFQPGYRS

Insulin receptor = Insulin receptor (Homo sapiens, UniProt P06213); experiment: Inhibition of Ins1R
Sequence of Insulin receptor (P06213 28-758 limits assumed): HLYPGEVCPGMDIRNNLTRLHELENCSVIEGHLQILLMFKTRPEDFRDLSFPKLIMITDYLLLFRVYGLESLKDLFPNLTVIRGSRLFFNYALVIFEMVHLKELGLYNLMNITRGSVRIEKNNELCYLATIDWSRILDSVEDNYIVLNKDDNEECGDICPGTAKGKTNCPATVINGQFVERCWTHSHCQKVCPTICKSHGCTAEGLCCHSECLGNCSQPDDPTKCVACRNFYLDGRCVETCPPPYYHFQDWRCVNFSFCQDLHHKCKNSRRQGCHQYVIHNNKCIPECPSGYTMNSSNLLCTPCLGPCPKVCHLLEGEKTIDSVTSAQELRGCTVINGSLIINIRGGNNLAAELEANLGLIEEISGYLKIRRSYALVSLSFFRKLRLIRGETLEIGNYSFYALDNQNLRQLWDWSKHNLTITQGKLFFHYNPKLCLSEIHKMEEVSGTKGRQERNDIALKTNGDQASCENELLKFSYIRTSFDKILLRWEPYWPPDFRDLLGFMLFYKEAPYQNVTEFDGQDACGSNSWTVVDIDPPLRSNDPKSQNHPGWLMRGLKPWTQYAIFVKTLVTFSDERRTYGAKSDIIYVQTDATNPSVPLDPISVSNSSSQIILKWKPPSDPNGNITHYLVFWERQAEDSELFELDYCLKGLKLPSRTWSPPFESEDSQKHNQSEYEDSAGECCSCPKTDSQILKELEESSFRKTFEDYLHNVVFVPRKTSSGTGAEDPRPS
Sequence of Insulin receptor (P06213 763-1382 limits assumed): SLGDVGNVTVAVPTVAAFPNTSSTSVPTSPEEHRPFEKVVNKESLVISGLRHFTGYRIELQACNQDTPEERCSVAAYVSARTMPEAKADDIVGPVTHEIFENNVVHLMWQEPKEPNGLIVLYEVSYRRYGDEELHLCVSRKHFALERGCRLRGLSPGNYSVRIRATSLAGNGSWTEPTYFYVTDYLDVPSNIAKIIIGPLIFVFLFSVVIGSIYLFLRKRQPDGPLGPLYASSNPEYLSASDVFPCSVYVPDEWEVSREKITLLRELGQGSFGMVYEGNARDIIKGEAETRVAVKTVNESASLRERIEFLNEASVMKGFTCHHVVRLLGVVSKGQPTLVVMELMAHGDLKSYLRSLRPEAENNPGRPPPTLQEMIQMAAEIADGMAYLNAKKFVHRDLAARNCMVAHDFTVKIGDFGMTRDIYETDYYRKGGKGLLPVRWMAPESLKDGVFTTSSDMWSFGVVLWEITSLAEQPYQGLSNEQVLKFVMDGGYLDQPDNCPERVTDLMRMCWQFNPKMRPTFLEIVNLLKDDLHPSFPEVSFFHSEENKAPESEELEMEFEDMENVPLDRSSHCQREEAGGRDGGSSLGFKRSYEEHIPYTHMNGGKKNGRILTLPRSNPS

[21] = molecular target: Mitogen-activated protein kinase 8 (Homo sapiens, UniProt P45983); experiment: Inhibition of JNK1
Sequence of Mitogen-activated protein kinase 8 (P45983 whole entry): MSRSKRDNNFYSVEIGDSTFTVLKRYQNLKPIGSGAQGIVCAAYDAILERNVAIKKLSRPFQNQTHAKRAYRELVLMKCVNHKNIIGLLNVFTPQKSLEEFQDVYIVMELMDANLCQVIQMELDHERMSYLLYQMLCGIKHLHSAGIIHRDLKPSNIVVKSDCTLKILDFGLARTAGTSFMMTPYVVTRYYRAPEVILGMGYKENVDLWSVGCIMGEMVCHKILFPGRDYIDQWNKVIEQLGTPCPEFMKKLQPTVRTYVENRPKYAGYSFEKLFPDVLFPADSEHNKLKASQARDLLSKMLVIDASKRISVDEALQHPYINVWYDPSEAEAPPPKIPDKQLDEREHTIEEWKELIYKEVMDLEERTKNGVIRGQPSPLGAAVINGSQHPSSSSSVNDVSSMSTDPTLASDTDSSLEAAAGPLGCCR

[22] = molecular target: Glycogen synthase kinase-3 beta (Homo sapiens, UniProt P49841); experiment: Inhibition of GSK3b
[23] = molecular target: Tyrosine-protein kinase SYK (Homo sapiens, UniProt P43405)

Work on `O=c1[nH]cnc2[nH]c(-c3ccnc(/C=C/c4ccccc4)c3)cc12` yielded an IC50 (PBMC) of 2300 nM.

With `CN(C)CCOc1ccc(/C=C/c2cc(-c3cc4c(=O)[nH]cnc4[nH]3)ccn2)cc1` the IC50 (Aurora kinase A) was 280 nM, the solubility thermodynamic [1] was 410 µg/mL (≈ 1020 µM) and the IC50 [2] was 6100 nM. For the same compound, the IC50 [3] was > 10000 nM, the IC50 [4] was 3600 nM and the IC50 (PBMC) was 40 nM. For the same compound, the IC50 [5] was 6400 nM, the IC50 [6] was 4100 nM and the IC50 [7] was 9500 nM. The Activity [8] was “Dose-dependent effect”, the IC50 [9] was 3300 nM and the IC50 [10] was 82 nM. The IC50 [11] was > 10000 nM, the IC50 [12] was 190 nM and the IC50 [13] was 28 nM. The IC50 (Ephrin type-A receptor 4) was 5600 nM, the IC50 [14] was 1000 nM and the IC50 [15] was 140 nM. The IC50 [16] was > 10000 nM, the IC50 (Ephrin type-B receptor 4) was 1400 nM and the IC50 [17] was 240 nM. The IC50 [18] was 8200 nM, the IC50 [19] was 6800 nM and the IC50 (MAP kinase p38) was > 10000 nM. The IC50 [20] was 2600 nM, the IC50 (Insulin receptor) was 7800 nM and the IC50 [21] was 960 nM. The IC50 [22] was 530 nM.

With `O=c1[nH]cnc2[nH]c(-c3ccnc(/C=C/c4ccc(CN5CCOCC5)cc4)c3)cc12` the IC50 (Aurora kinase A) was 93 nM, the solubility thermodynamic [1] was 41 µg/mL (≈ 99.2 µM) and the IC50 [2] was 5200 nM. The IC50 [3] was > 10000 nM, the IC50 [4] was 1300 nM and the IC50 (PBMC) was 110 nM. For the same compound, the IC50 [5] was > 10000 nM, the IC50 [6] was > 10000 nM and the IC50 [7] was > 10000 nM. The Activity [8] was “Dose-dependent effect”, the IC50 [23] was 6200 nM and the IC50 [10] was 51 nM. For the same compound, the IC50 [11] was 6700 nM, the IC50 [12] was 100 nM and the IC50 [13] was 24 nM. For the same compound, the IC50 (Ephrin type-A receptor 4) was > 10000 nM, the IC50 [14] was 310 nM and the IC50 [15] was 85 nM. For the same compound, the IC50 [16] was > 10000 nM, the IC50 (Ephrin type-B receptor 4) was 1700 nM and the IC50 [17] was 950 nM. The IC50 [18] was > 10000 nM, the IC50 [19] was > 10000 nM and the IC50 (MAP kinase p38) was > 10000 nM. For the same compound, the IC50 [20] was 1100 nM, the IC50 (Insulin receptor) was > 10000 nM and the IC50 [21] was 4000 nM. It also gave an IC50 [22] of 300 nM.

For `O=C(c1ccc(/C=C/c2cc(-c3cc4c(=O)[nH]cnc4[nH]3)ccn2)cc1)N1CCOCC1`, the solubility thermodynamic [1] was 9 µg/mL (≈ 21.1 µM) and the IC50 (PBMC) was 150 nM.

With `CCN(CC)Cc1ccc(/C=C/c2cc(-c3cc4c(=O)[nH]cnc4[nH]3)ccn2)cc1` the IC50 (PBMC) was 380 nM.

`Cc1nc2[nH]c(-c3ccnc(/C=C/c4ccccc4)c3)cc2c(=O)[nH]1` showed an IC50 (PBMC) of 1100 nM.

Work on `Nc1nc2[nH]c(-c3ccnc(/C=C/c4ccccc4)c3)cc2c(=O)[nH]1` yielded an IC50 (PBMC) of 1500 nM.

In the case of `O=c1[nH]c(Cc2ccccc2)nc2[nH]c(-c3ccnc(/C=C/c4ccccc4)c3)cc12`, the IC50 (PBMC) is reported as > 10000 nM.

With `COc1ccc(-c2cc(-c3cc4c(=O)[nH]cnc4[nH]3)ccn2)cc1` the IC50 (PBMC) was > 10000 nM.

`O=C(Nc1cc(-c2cc3c(=O)[nH]cnc3[nH]2)ccn1)c1ccc(C2CCCC2)cc1` gave an IC50 (PBMC) of 10000 nM.

With `O=c1[nH]cnc2[nH]c(-c3ccnc(/C=C/c4ccc(F)cc4)c3)cc12` the solubility thermodynamic [1] was 3 µg/mL (≈ 9.03 µM) and the IC50 (PBMC) was 350 nM.
